One block for each compound: values may come before it.
Tests used:
TrxR1 [1] = biological target: T1, TrxR1 (Homo sapiens, UniProt Q16881); assay: Cellular quantitative HTS; type: cell-based; conditions: for activity in the cellular RX1 screen: hits classed up to 20 μM; for pIC50 comparison between the two vinylsulfones: despite ca. 1.1 LogP difference
T1 sequence (Q16881 1-499 isoform Q16881-5): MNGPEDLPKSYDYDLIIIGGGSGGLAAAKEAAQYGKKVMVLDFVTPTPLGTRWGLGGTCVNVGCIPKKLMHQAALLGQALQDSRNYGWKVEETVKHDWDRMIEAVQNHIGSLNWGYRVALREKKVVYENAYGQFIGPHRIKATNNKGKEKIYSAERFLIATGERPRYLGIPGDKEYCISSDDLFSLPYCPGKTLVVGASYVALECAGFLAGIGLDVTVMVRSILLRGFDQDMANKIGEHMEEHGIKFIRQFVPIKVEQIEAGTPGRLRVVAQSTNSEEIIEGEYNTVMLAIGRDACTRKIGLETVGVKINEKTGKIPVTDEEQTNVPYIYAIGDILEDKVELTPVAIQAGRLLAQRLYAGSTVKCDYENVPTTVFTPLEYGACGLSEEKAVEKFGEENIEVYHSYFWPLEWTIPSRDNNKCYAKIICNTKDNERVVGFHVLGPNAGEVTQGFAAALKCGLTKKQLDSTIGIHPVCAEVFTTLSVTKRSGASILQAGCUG

TrxR = biological target: T2, TrxR (Homo sapiens, UniProt Q16881); assay: Cellular probe signal after chemical inhibition of TrxR; type: cell-based
T2 sequence (Q16881 1-499 isoform Q16881-5): T1 sequence (Q16881 1-499 isoform Q16881-5)

TrxR1 [2] = biological target: T1, TrxR1; conditions: cited from earlier work

SMILES: CN(N=O)c1cc(O)ccc1O [Dephostatin]
potency loss in cells (ratio of cell-free to cellular potency) (TrxR1 [1]; cellular RX1 qHTS versus cell-free qHTS of ref 67): > 10 fold

SMILES: OC[C@H]1O[C@H]([S-])[C@H](O)[C@@H](O)[C@@H]1O.[Au+] [aurothioglucose]
pIC50 (potency) lower than its ester prodrug auranofin (TrxR1 [1]): 10 fold

SMILES: COc1ccc([N+](=O)[O-])c(S(=O)(=O)c2ccc(Cl)cc2)n1 [TRi-1]
effect of TrxR inhibitor on cellular RX1 signal (TrxR): efficiently suppressed

SMILES: COC[C@H]1OC(=O)c2coc3c2[C@@]1(C)C1=C(C3=O)[C@@H]2CCC(=O)[C@@]2(C)C[C@H]1OC(C)=O [wortmannin]
activity in the cellular RX1 screen (TrxR1 [1]): inactive
activity in the enzymatic (cell-free) TrxR screen (TrxR1 [2]): activity

SMILES: CC(=O)c1c(O)c(C)c(O)c(Cc2c(O)c3c(c(C(=O)/C=C/c4ccccc4)c2O)OC(C)(C)C=C3)c1O [rottlerin]
apparent potency relative to the reference inhibitor TRi-1 (TrxR1 [1]): ≤ 3%

apparent potency relative to the reference inhibitor TRi-1 (TrxR1 [1]): ≤ 3%
SMILES: O=C1CSC(=S)N1 [rhodanine]

apparent potency relative to the reference inhibitor TRi-1 (TrxR1 [1]): ≤ 3%
SMILES: O=c1c(O)c(-c2cc(O)c(O)c(O)c2)oc2cc(O)cc(O)c12 [myricetin]

SMILES: CC(C)(C)c1ccc(S(=O)(=O)/C=C/C#N)cc1 [BAY 11–7085]
pIC50 comparison between the two vinylsulfones (TrxR1 [1]): no change

SMILES: Oc1ccc2ccccc2c1SSc1c(O)ccc2ccccc12 [IPA-3]
activity in the cellular RX1 screen (TrxR1 [1]): active
activity in the enzymatic (cell-free) TrxR screen (TrxR1 [2]): inactivity

pIC50 comparison between the two vinylsulfones (TrxR1 [1]): no change
SMILES: Cc1ccc(S(=O)(=O)/C=C/C#N)cc1 [BAY 11–7082]

SMILES: C=CCN1CCc2c(cc(O)c(O)c2Cl)C(c2ccccc2)C1 (centres unmarked) [chloro-APB]
activity in the cellular RX1 screen (TrxR1 [1]): active
activity in the enzymatic (cell-free) TrxR screen (TrxR1 [2]): inactivity
